Assay results: US20120214834A1, “IMMUNE ENHANCEMENT COMPOSITION AND KIT AND USE THEREOF” (priority 2011, published 2012)

Tested on: Human erythromyeloblastoid leukemia cell line K562 (target cells of NK cells)
Experiment: Activity of NK cells against pre-treated K562 target cells, by flow cytometer (PKH67-GL / PI)
Assay type: cell-based
Conditions: K562 target cells treated with 10 nM rapamycin alone for 48 hours; effector:target 25:1, 16 hours co-culture
Experimental: Select Human erythromyeloblastoid leukemia cell line K562 as target cells and culture it by tissue culture technique in RPMI 1640 supplemented with 10% FBS to a proper amount. And then, take a suspension containing 1×10^6 cells and inoculate it in a 6-wells plate. […] And then, put the plate into a 37° C. incubator to continue culturing for 48 hours.
Use 1 mM of green fluorescent cell linker dye PKH67-GL(Sigma-Aldrich), which resolves in alcohol, to label the aforementioned cells. The detail steps are: resuspend 1×10^6 cells in 1 ml of Diluent C(Sigma-Aldrich), add PKH67-GL until the density reaches 4×10^−6 M and dye for 4 minutes under 25 °C. Add 1 ml FBS and 2 ml complete medium to end the coloring reaction, then wash it with PBS for three times. And then, dilute the amount of cells in a complete medium until it reaches 2.5×10^5 cells per ml and confirm the labeling and activity of cells by a Flow cytometer.
Dilute the amount of NK cells (the effector cell of the present Experimental Example) to 6.25×10^6 per ml. Mix 100 μl of the aforementioned diluted cell solution with 100 μl of the target cell solution so that the ratio of effector cells and target cells reaches 25:1. Put the mixed cells in a cell culture and culture for 16 hours in a 37□ incubator with 5% CO2. […]

CO[C@H]1C[C@@H]2CC[C@@H](C)[C@@](O)(O2)C(=O)C(=O)N2CCCC[C@H]2C(=O)O[C@H]([C@H](C)C[C@@H]2CC[C@@H](O)[C@H](OC)C2)CC(=O)[C@H](C)/C=C(\C)[C@@H](O)[C@@H](OC)C(=O)[C@H](C)C[C@H](C)/C=C/C=C/C=C/1C [rapamycin]
activity ratio of NK cells, increase over Control: 15%
